{
  "source": "patent US20240148728A1",
  "about": "“NOVEL METHOD TO BLOCK IN[…] DEATH AND IL-1BETA SECRETION CAUSED BY […] UV I[…] GENETIC AND CHEMICAL INHIBITORS OF ZAKA AND THE NLRP1 INFLAMMASOME” (priority 2021, published 2024)",
  "key": {"NLRP1": {"system": "NLRP1", "assay": "Ribosome-bound NLRP1, sucrose cushion", "type": "cell-based, human", "conditions": "N-TERT cell lysates", "protocol": "Crude cellular ribosome fractions were purified by sedimentation through a 30% sucrose cushion or a 10-30% sucrose gradient. Cells were lysed for 20 min in 15 mM Tris, pH 7.5, 0.5% NP-40, 6 mM MgCl2, 300 mM NaCl, with 1× protease inhibitors before centrifugation for 10 min at 12000 g, 4° C. The supernatant was then carefully layered onto a 30% sucrose cushion 30% sucrose in 20 mM Tris, pH 7.5, 2 mM MgCl2, 150 mM KCl and ultra-centrifuged at 34,000 rpm for 24 h using Beckman Coulter Ultracentrifuge, Optima XE. Pellets then washed three times with ice cold PBS and suspended in 100 mM KCl, 5 mM MgCl2, 20 mM HEPES, pH 7.6, 1 mM DTT and 10 mM NH4Cl. Purified ribosome fractions were then analysed by immunoblot."}, "ASC": {"system": "ASC", "assay": "Phosphorylation of inflammasome adaptor ASC", "type": "cell-based, human", "conditions": "data not shown"}, "N-TERT cells": {"system": "N-TERT cells", "assay": "Secreted IL1β / inflammasome activation in N-TERT cells", "type": "cell-based, human", "protocol": "To measure secreted cytokine and chemokine levels a human IL1β enzyme linked immunosorbent assay (ELISA) kit (BD, #557953), human IL-18 ELISA kit (MBL, #7620) or an Immune Monitoring 65-Plex Human ProcartaPlex Panel (EPX650-10065-901) were used according to manufacturer's protocols. Further analysis of Luminex or ELISA profiling of samples was performed using heatmap and PCA analysis on Clustervis (biitdotcsdotutdotee/clustvis/) [Somani et al., Proceeding of SSIC (2019)].\n(§1) The following antibodies were used in this study: cleaved PARP1 (Abclonal, #WH162766), Cleaved CASP3 (Abclonal, #WH154646), Full length GSDMD-FL (Abcam, #ab210070), IL1β p17 specific (CST, #83186S), CARD8 (Abcam, CARD8-NT: ab19485, CARD8-CT: ab241186), DPP9 (Abcam, ab226334), c-Myc (Santa Cruz Biotechnology, #sc-40), HA tag (Santa Cruz Biotechnology, #sc-805), GAPDH (Santa Cruz Biotechnology, #sc-47724), ASC (Adipogen, #AL-177), CASP1 (Santa Cruz Biotechnology, #sc-622), 11_1B (R&D systems, #AF-201), FLAG (SigmaAldrich, #F3165), NLRP1 (R&D systems, #AF6788), IL18 (Abcam ab207324), cleaved GSDMD-NT (Asp275) (Cell Signaling Technology, #36425), RPL31 (Abclonal, #WH162766), CASP7 (Abcam, ab255818), CASP8 (Abcam, ab32397), cleaved CASP3 (Cell Signaling Technology, #9664). All horseradish peroxidase (HRP)— conjugated secondary antibodies were purchased from Jackson Immunoresearch (goat anti-mouse IgG: 115-035-166; goat anti-rabbit IgG: 111-035-144; and donkey anti-goat IgG: 705-005-147). Blue-Native PAGE was carried out using the Native-PAGE system (ThermoFisher) with 10-20 μg of total lysate. For SDS-PAGE using whole cell lysates, cells were resuspended in tris-buffered saline 1% NP-40 with protease inhibitors (Thermo Scientific, #78430). Protein concentration was determined using the Bradford assay (Thermo Scientific, #23200) and […] of protein loaded, a part from cleaved GSDMD-NT visualisation where […] of protein was used. All primary antibodies were used at 250 ng/ml. Visualisation of ASC oligomerization was previously described (Robinson et al., 2020). For analysis of IL1β and IL-18 cleavage in the media by immunoblotting, samples were concentrated using filtered centrifugation (Merck, Amicon Ultra, #UFC5003BIK). Protein samples were run using immunoblotting, and then visualized using a ChemiDoc Imaging system (Bio-Rad). PhosTag SDS-PAGE was carried out using homemade 10% SDS-PAGE gel, with addition of Phos-tag Acrylamide (Wako Chemicals, AAL-107) to a final concentration of 30 μM and manganese chloride(II) (Sigma-Aldrich, #63535) to 60 μM."}, "MV4-11": {"system": "MV4-11", "assay": "GSDMD cleavage in MV4-11 leukemia cell line", "type": "cell-based, human", "conditions": "CARD8-activating cell line"}, "NLRP1-NT": {"system": "NLRP1-NT", "assay": "NLRP1 cleavage / NLRP1-NT level by immunoblot", "type": "cell-based, human", "description": "as §1"}, "[1]": {"system": "primary bronchial epithelial cells (NHBEs)", "assay": "Inflammasome activation and pyroptosis in primary bronchial epithelial cells", "type": "cell-based, human", "conditions": "ANS 1 μM"}, "human DPP9": {"molecular_target": "T1, human DPP9 (Homo sapiens, UniProt Q86TI2)", "T1 construct": "expressed in transfected cells; host or cells: 293T", "T1 sequence (Q86TI2 whole entry)": "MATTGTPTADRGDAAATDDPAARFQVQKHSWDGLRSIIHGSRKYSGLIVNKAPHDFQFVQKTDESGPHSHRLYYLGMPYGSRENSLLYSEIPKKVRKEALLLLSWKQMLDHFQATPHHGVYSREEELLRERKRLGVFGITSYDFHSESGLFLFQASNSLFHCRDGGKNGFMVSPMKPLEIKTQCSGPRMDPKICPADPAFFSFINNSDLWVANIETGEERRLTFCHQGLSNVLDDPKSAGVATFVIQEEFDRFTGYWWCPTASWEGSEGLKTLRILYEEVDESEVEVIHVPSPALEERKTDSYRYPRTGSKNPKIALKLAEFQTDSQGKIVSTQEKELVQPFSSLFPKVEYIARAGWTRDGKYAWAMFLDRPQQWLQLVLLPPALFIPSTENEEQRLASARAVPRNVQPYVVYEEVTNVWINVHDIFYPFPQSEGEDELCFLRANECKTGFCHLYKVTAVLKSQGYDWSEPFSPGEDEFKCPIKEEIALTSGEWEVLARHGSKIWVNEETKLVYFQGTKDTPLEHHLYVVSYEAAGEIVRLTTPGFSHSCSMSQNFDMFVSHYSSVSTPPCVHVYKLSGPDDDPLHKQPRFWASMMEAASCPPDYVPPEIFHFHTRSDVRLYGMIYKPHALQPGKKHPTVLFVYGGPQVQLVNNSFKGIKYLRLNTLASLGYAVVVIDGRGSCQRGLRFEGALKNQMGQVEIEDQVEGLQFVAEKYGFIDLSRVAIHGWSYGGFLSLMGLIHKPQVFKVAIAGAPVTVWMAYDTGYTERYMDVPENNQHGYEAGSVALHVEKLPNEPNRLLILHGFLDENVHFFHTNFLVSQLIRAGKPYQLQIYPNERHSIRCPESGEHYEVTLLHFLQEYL", "assay": "DPP8/9 activity assay (in vitro proteolysis assay)", "type": "biochemical", "conditions": "Gly-Pro-AMC hydrolysis", "protocol": "293T cells were transfected with vector or wild-type DPP9. DPP9-transfected cells were treated with VbP, Anisomycin (ANS) or Harringtonine (HTN). Cells were lysed in PBS 1% Tween-20, 48 h after transfection and treatments. 0.3 μg of total lysate was then incubated with 0.1 μM uGly-Pro-AMC fluorescence substrate. AMC fluorescence was measured after 30 mins at 25° C. in a 50 μl reaction every minute on a spectrometer and the rate of Gly-Pro-AMC hydrolysis per minute calculated."}},
  "data": [
    {"compound": "COc1ccc(C[C@H]2NC[C@H](O)[C@H]2OC(C)=O)cc1", "note": "[ANS, Anisomycin]", "values": [
      {"measurement": "level of ribosome-bound NLRP1", "setting": "NLRP1", "result": "dramatically increased the level of ribosome-bound NLRP1"},
      {"measurement": "phosphorylation of ASC", "setting": "ASC", "result": "not phosphorylated"},
      {"measurement": "IL1β secretion and pyroptotic death in ZAKα KO cells", "setting": "N-TERT cells; ZAKα KO N-TERT cells", "result": "completely resistant"},
      {"measurement": "IL1β secretion at high concentration versus lower doses", "setting": "N-TERT cells; ultra-high doses of ANS", "result": "significant decrease in IL1β secretion as compared to lower doses"},
      {"measurement": "GSDMD cleavage", "setting": "MV4-11", "result": "did not display detectable GSDMD cleavage"},
      {"measurement": "specific cleavage of overexpressed NLRP1 (smaller bands)", "setting": "NLRP1-NT; ANS-treated cells", "result": "did not observe any smaller bands"},
      {"measurement": "level of intact NLRP1-NT", "setting": "NLRP1-NT; NLRP1 KO keratinocytes rescued with full-length NLRP1", "result": "caused a significant reduction in the level of intact NLRP1-NT"},
      {"measurement": "canonical inflammasome activation and pyroptosis", "setting": "[1]", "result": "underwent canonical inflammasome activation and pyroptosis"},
      {"measurement": "catalytic activity of human DPP9", "setting": "human DPP9", "result": "had no effect on the catalytic activity of human DPP9"}
    ]}
  ]
}
